Assay results reported in PubChem BioAssay (NCI).
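Growth conditions: 96-well plates. Treatment: test compound, 48 hours, 5 concentrations. Analysis: linear interpolation between bracketing concentrations; unreached endpoints set to highest concentration. TGI marks complete inhibition of growth.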

Experiments:
Assay in all cases: inhibition of tumour cell growth, NCI panel, 48 h
U251 CNS = test system: U251 CNS
786-0 renal = test system: 786-0 renal
CCRF-CEM leukemia = test system: CCRF-CEM leukemia
OVCAR-4 ovarian = test system: OVCAR-4 ovarian
UACC-257 melanoma = test system: UACC-257 melanoma
NCI-H226 lung = test system: NCI-H226 lung
UACC-62 melanoma = test system: UACC-62 melanoma
SK-MEL-5 melanoma = test system: SK-MEL-5 melanoma
HCC-2998 colon = test system: HCC-2998 colon
A498 renal = test system: A498 renal
K-562 leukemia = test system: K-562 leukemia
KM12 colon = test system: KM12 colon
OVCAR-8 ovarian = test system: OVCAR-8 ovarian
HT29 colon = test system: HT29 colon
EKVX NSCLC = test system: EKVX NSCLC
DU-145 prostate = test system: DU-145 prostate
HOP-62 NSCLC = test system: HOP-62 NSCLC
HCT-116 colon = test system: HCT-116 colon
MCF7 breast = test system: MCF7 breast

SMILES	TGI (U251 CNS) [µM]	TGI (786-0 renal) [µM]	TGI (CCRF-CEM leukemia) [µM]	TGI (OVCAR-4 ovarian) [µM]	TGI (UACC-257 melanoma) [µM]	TGI (NCI-H226 lung) [µM]	TGI (UACC-62 melanoma) [µM]	TGI (SK-MEL-5 melanoma) [µM]	TGI (HCC-2998 colon) [µM]	TGI (A498 renal) [µM]	TGI (K-562 leukemia) [µM]	TGI (KM12 colon) [µM]	TGI (OVCAR-8 ovarian) [µM]	TGI (HT29 colon) [µM]	TGI (EKVX NSCLC) [µM]	TGI (DU-145 prostate) [µM]	TGI (HOP-62 NSCLC) [µM]	TGI (HCT-116 colon) [µM]	TGI (MCF7 breast) [µM]
NC(=O)Cc1nc2c(N)ncnc2n1C1OC(CO)C(O)C1O (configuration not stated)	> 100	> 100	> 100	> 100	> 100	> 100	> 100	> 100	> 100	> 100	> 100	> 100	> 100	> 100	> 100	> 100	> 100	> 100	> 100
C=C(CCC/C(C)=C/C=C/[C@@H](C)CCCc1ccoc1)C[C@@H]1OC(=O)[C@H](C)[C@@H]1O	25.4	31.5	24.6	20.1	15.1	14.1	12.3	14.3	24.8	15.3	> 50	16.1	21.3	> 50	19.4	23.5	18.3	> 50	25.2
N#CC(=N)c1ncn(-c2ccc(N)cc2)c1N	> 100	> 100	> 100	> 100	> 100	> 100	> 100	> 100	> 100	> 100	> 100	> 100	> 100	> 100	> 100	> 100	> 100	> 100	> 100
